Measurements as given in publication PMC5104425, “A Novel Selective Inhibitor of Delta-5 Desaturase Lowers Insulin Resistance and Reduces Body Weight in Diet-Induced Obese C57BL/6J Mice” (PLoS ONE, 2016).

Legend:
DIO mice = assay: Indirect calorimetry test (energy expenditure, RER) in established DIO mice; type: in vivo, C57BL/6J mice; conditions: 10 mg/kg
Description: To evaluate the effect on daily EE, DIO mice fed a HFD that has 41% kcal from fat and contains no AA (D12079B; Research diets, Inc., see S1 Table for fatty acids composition) for 50 weeks were used. At 55 weeks of age, DIO mice were divided into two weight-matched groups (7 animals per group) and treated with vehicle or 10 mg/kg compound-326 for 11 weeks. […] Indirect calorimetry test was performed on day1, 8, 15, 21, and 56 during the study. Daily EE was analyzed using ANCOVA with body mass as covariate. After the treatment period, mice were sacrificed and fat tissues were harvested to evaluate the weights.
Energy metabolism was evaluated using an Oxymax indirect calorimetry system (Columbus Instruments, Columbus, OH). Mice were individually housed in the chamber with a 12-h light/dark cycle. VO2 and VCO2 rates were determined with the following Oxymax system settings: air flow, 0.6 L/min; sample flow, 0.5 l/min; settling time, 10 min; and measuring time, 1 min. The system was calibrated against a standard gas mixture to measure O2 consumed (VO2, mL/kg/h) and CO2 generated (VCO2, mL/kg/h). Metabolic rate (VO2) and respiratory exchange ratio (RER; ratio of VCO2/VO2) were evaluated over a 24-h period. Energy expenditure was calculated as the product of the calorific value of oxygen (3.815+1.232×RER) and the volume of O2 consumed.

fat tissues of DIO mice = assay: RT-qPCR gene expression in epididymal and subcutaneous fat of DIO mice after 6-week treatment; type: in vivo, C57BL/6J mice; conditions: 10 mg/kg, 6 weeks
Description: Mice fed a HFD that has 41% kcal from fat and contains no AA (D12079B; Research diets, Inc.) from 5 weeks of age were divided into 2 groups at the age of 8 weeks (8 animals per group), and were administered 10 mg/kg compound-326 or vehicle for 6 weeks. After the treatment period, mice were sacrificed and epididymal and subcutaneous fats were harvested for mRNA analysis. Nine animals maintained on a standard chow (CE2, CLEA Japan, Osaka) were used as control.
Total RNA was extracted and purified using RNeasy Mini Kit (QIAGEN, USA). First-strand cDNA was synthesized using High Capacity cDNA Reverse Transcription Kits (Thermo Fisher, USA). The mRNA levels were quantified by an ABI Prism 7900 TaqMan PCR system (Thermo Fisher, USA) according to the manufacturer’s instruction using TaqMan® Universal PCR Mastermix with the primer-probe sets of TaqMan Gene Expression Assays (Thermo Fisher, USA) for the following genes: Ccl2 (chemokine (C-C motif) ligand 2; Mm99999056_m1), Cd68 (CD68 antigen; Mm03047343_m1), Adgre1 (adhesion G protein-coupled receptor E1; Mm00802529_m1), Tnf (tumor necrosis factor; Mm00443258_m1), Il6 (interleukin 6; Mm99999064), Lep (leptin; Mm00434759_m1), Adipoq (adiponectin; Mm00456425_m1), Fads2 ([…]; Mm00517221_m1), Fads1 ([…]; Mm00507605_m1), Ucp1 (uncoupling protein 1; Mm00494069_m1), Elovl3 (elongation of very long chain fatty acids 3; Mm00468164_m1), Cidea (cell death-inducing DNA fragmentation factor, alpha subunit-like effector A; Mm00432554_m1), Otop1 (otopetrin 1; Mm00554705_m1), and Rplp0 (ribosomal protein, large, P0; forward; 5'-[…]-3', reverse; 5'-[…]-3', probe (VIC-5'→3'-TAMRA); 5'-[…]-3'). The Rplp0 mRNA level was used as a reference and relative transcript levels were calculated with the comparative Ct method (2^-ΔΔCT) (Applied Bio-systems).

human D9D = biological target: T1, human D9D (Homo sapiens, UniProt O00767); assay: In vitro cell-based assay for desaturase activity (HepG2), D9D
T1 construct: endogenous in cells; host or cells: HepG2
T1 sequence (O00767 1-359): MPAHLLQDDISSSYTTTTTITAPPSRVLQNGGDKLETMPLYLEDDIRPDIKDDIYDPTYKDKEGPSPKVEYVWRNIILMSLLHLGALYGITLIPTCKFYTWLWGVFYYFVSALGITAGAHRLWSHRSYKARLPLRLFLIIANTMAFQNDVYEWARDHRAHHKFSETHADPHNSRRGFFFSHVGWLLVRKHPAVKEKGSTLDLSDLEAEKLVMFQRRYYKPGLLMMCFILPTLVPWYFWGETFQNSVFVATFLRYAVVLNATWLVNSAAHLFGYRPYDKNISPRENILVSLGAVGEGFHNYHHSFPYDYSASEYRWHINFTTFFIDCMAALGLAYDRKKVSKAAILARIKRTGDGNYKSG
Description: (§1) HepG2 cells were seeded in 96-well cell culture plates at 100 000 cells/well and incubated overnight in DMEM supplemented with 10% fetal bovine serum, 100 U/mL penicillin, and 100 μg/mL streptomycin in 5% CO2 at 37°C. The cells were washed twice with 200 μL of PBS and incubated with the test compounds in DMEM with 0.1% fatty acid free BSA for 30 min. Then, 0.1 μCi/well of [^14C]-labeled DGLA, linoleic acid, and stearic acid (ARC, St. Louis, MO) were added for each desaturase assay. After incubation for 3 h at 37°C, the cells were washed 3 times with 200 μL of PBS to remove [^14C]-labeled substrates in the medium and 0.63 N of NaOH was added to saponify fatty acids. Radioactive substrates and products were extracted, separated, and analyzed using the method as described above.

human D6D = biological target: T2, human D6D (Homo sapiens, UniProt O95864); assay: In vitro cell-based assay for desaturase activity (HepG2), D6D
T2 construct: endogenous in cells; host or cells: HepG2
T2 sequence (O95864 1-444): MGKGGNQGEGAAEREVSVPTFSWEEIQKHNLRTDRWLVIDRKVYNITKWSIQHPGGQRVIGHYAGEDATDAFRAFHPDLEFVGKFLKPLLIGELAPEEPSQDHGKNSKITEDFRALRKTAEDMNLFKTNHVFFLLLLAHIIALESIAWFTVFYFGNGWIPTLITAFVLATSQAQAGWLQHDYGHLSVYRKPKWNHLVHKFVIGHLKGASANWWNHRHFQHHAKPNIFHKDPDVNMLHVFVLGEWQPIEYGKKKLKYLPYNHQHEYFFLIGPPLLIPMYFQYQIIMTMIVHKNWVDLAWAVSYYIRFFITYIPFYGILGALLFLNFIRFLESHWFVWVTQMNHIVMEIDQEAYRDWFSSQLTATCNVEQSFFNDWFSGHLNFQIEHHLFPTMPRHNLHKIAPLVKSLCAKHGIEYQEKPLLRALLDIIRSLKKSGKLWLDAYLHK
Description: as §1

Compound: O=C1Cc2c(nc(OCC(F)(F)C(F)(F)F)n(-c3ccc(OCC(F)(F)F)cc3)c2=O)N1 [Compound-326, 2-(2,2,3,3,3-Pentafluoropropoxy)-3-[4-(2,2,2-trifluoroethoxy)phenyl]-5,7-dihydro-3H-pyrrolo[2,3-d]pyrimidine-4,6-dione]
- daily EE relative to body mass (DIO mice; day 15, independent of decreased BW): increased
- daily EE (kcal/day) plotted against body mass (DIO mice; days 1 and 8, vs vehicle): no difference
- difference in daily EE lines vs vehicle (DIO mice; days 21 and 56): became more apparent
- RER (DIO mice; relative to vehicle through the study, did not reach significance): lower
- D5D mRNA expression in epididymal fat (fat tissues of DIO mice): upregulated
- D6D mRNA expression in epididymal fat (fat tissues of DIO mice): upregulated
- beige fat cell-selective genes, including Ucp1, Cidea, Elovl3, and Otop1, in subcutaneous fat (fat tissues of DIO mice): no induction
- epididymal Lep mRNA (fat tissues of DIO mice): decreased
- epididymal Adipoq mRNA (fat tissues of DIO mice; did not reach statistical difference (p = 0.08)): decreased
- Lep mRNA in subcutaneous fat (fat tissues of DIO mice; did not reach statistical significance (p = 0.08)): decrease
- Adgre1 expression in epididymal fat (fat tissues of DIO mice; not significant): decreased
- Cd68 expression in epididymal fat (fat tissues of DIO mice; not significant): decreased
- Ccl2 expression in epididymal fat (fat tissues of DIO mice; significant effect): decreased
- IC50 (human D9D): > 10 µM
- inhibition of D6D activity (human D6D): almost no inhibition
- IC50 (human D6D; Cell-based (HepG2)): > 10 µM
